Experimental data as given in paper PMC6384738, “Structure-Function Studies of Polymyxin B Lipononapeptides” (Molecules, 2019).
In brackets after ≈: the same amount, converted by molar mass. *1 amine or outer side, *2 acyl side, *3 side chain or, on linkers, in order; H or OH if unused. Where a SMILES comes first, the peptide text is derived from it. Bridges are numbered along the chain shown (N, C = ends). [ ]: non-standard residue; d: D form. The star is where a group is joined. Decanoyl(3R-OH) = CCCCCCC[C@@H](O)CC(=O)*; Butanoyl(4-OPh) = O=C(CCCOc1ccccc1)*; NH(2-ClPh) = Clc1ccccc1N*; dDab = NCC[C@@H](N)C(=O)O; Octanoyl = CCCCCCCC(=O)*; Dab = NCC[C@H](N)C(=O)O; CO = O=C([*:1])[*:2]

Experiments:
K. pneumoniae ATCC 13833 = assay: microbe, parasite or virus in culture
Procedure, shortened: (§1)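 Growth inhibition is assessed by broth microdilution, with the MIC expressed in mg/L; polymyxin B, colistin, vancomycin and gentamicin act as positive controls.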

[1] = system: K. pneumoniae ATCC 700603; assay: microbe, parasite or virus in culture
Procedure, shortened: as §1

K. pneumoniae BAA 2146 = assay: microbe, parasite or virus in culture
Procedure, shortened: as §1

P. aeruginosa ATTC 27853 = assay: microbe, parasite or virus in culture
Procedure, shortened: as §1

[2] = system: P. aeruginosa FADDI PA070; assay: microbe, parasite or virus in culture
Procedure, shortened: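 Antibacterial activity: broth microdilution MIC (mg/L) against the reference isolate.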

in vitro = conditions: human
Procedure, shortened: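 HK-2 cells seeded 2000 cells/well in DMEM/F12 with 10% FBS, grown 24 h, then exposed to compounds (300 µM to 2.3 µM, 2-fold series; colistin/polymyxin B 1 mM to 7.8 µM) for 24 h at 37 °C. LDH in medium read at 450 nm after 30 min; cytotoxicity % relative to 1% Triton X-100 and untreated cells.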

A. baumannii ATCC 19606 = assay: microbe, parasite or virus in culture
Procedure, shortened: as §1

E. coli ATCC 25922 = assay: microbe, parasite or virus in culture
Procedure, shortened: as §1

S. aureus ATCC 25923 = assay: microbe, parasite or virus in culture
Procedure, shortened: as §1

| Structure (SMILES) | MIC K. pneumoniae ATCC 13833 (K. pneumoniae ATCC 13833; ATCC 13833, 18 h) [µg/mL] | MIC K. pneumoniae ATCC 700603 ([1]; ATCC 700603, 18 h) [µg/mL] | MIC K. pneumoniae BAA 2146 (K. pneumoniae BAA 2146; BAA 2146, 18 h) [µg/mL] | MIC P. aeruginosa ATTC 27853 (P. aeruginosa ATTC 27853; ATTC 27853, 18 h) [µg/mL] | MIC P. aeruginosa FADDI PA070 ([2]; FADDI PA070, 18 h) [µg/mL] | CC50 at 24 h (in vitro) [µM] | MIC A. baumannii ATCC 19606 (A. baumannii ATCC 19606; ATCC 19606, 18 h) [µg/mL] | MIC E. coli ATCC 25922 (E. coli ATCC 25922; ATCC 25922, 18 h) [µg/mL] | MIC S. aureus ATCC 25923 (S. aureus ATCC 25923; ATCC 25923, 18 h) [µg/mL] | also measured |
| --- | --- | --- | --- | --- | --- | --- | --- | --- | --- | --- |
| CCCCCCCC(=O)N[C@@H](CCN)C(=O)N[C@H](C(=O)N[C@H](CCN)C(=O)N[C@H]1CCNC(=O)[C@H]([C@@H](C)O)NC(=O)[C@H](CCN)NC(=O)[C@H](CCN)NC(=O)[C@H](CC(C)C)NC(=O)[C@@H](Cc2ccccc2)NC(=O)[C@H](CCN)NC1=O)[C@@H](C)O [Compound 20] (Octanoyl-[Dab]T[dDab][Dab][Dab][dF]L[Dab][Dab]T; lactam 4-C) | 0.5 (≈ 0.42 µM) | 1 (≈ 0.841 µM) | 4 (≈ 3.36 µM) | 2 (≈ 1.68 µM) | >32 | 183 | – | – | – | – |
| CCCCCCCC(=O)N[C@H](C(=O)N[C@H](CCN)C(=O)N[C@H]1CCNC(=O)[C@H]([C@@H](C)O)NC(=O)[C@H](CCN)NC(=O)[C@H](CCN)NC(=O)[C@H](CC(C)C)NC(=O)[C@@H](Cc2ccccc2)NC(=O)[C@H](CCN)NC1=O)[C@@H](C)O [Compound 21] (Octanoyl-T[dDab][Dab][Dab][dF]L[Dab][Dab]T; lactam 3-C) | 4 (≈ 3.67 µM) | 1 (≈ 0.918 µM) | 1 (≈ 0.918 µM) | 2 (≈ 1.84 µM) | 8 (≈ 7.34 µM) | 289 | 8 (≈ 7.34 µM) | 0.5 (≈ 0.459 µM) | >32 | – |
| CC(C)C[C@@H]1NC(=O)[C@@H](Cc2ccccc2)NC(=O)[C@H](CCN)NC(=O)[C@@H](NC(=O)[C@@H](CCN)NC(=O)[C@@H](NC(=O)Nc2ccccc2Cl)[C@@H](C)O)CCNC(=O)[C@H]([C@@H](C)O)NC(=O)[C@H](CCN)NC(=O)[C@H](CCN)NC1=O [Compound 22] ({NH(2-ClPh)-CO}-T[dDab][Dab][Dab][dF]L[Dab][Dab]T; lactam 3-C) | – | – | – | – | – | > 300 | – | – | – | MIC A. baumannii ATCC 19606 (A. baumannii ATCC 19606; broth microdilution, 18 h): >32 µg/mL; MIC E. coli ATCC 25922 (E. coli ATCC 25922; broth microdilution, 18 h, 37 °C): 16 µg/mL (≈ 14.3 µM); MIC K. pneumoniae ATCC 13833 (K. pneumoniae ATCC 13833; broth microdilution, 18 h): 16 µg/mL (≈ 14.3 µM); MIC K. pneumoniae ATCC 700603 ([1]; ESBL strain, broth microdilution, 18 h): 16 µg/mL (≈ 14.3 µM); MIC K. pneumoniae BAA 2146 (K. pneumoniae BAA 2146; NDM-1 positive strain, broth microdilution, 18 h): 16 µg/mL (≈ 14.3 µM); MIC P. aeruginosa ATTC 27853 (P. aeruginosa ATTC 27853; broth microdilution, 18 h): 2 µg/mL (≈ 1.79 µM); MIC P. aeruginosa FADDI PA070 ([2]; Pmx-resistant clinical isolate, broth microdilution, 18 h): >32 µg/mL; MIC S. aureus ATCC 25923 (S. aureus ATCC 25923; Gram-positive strain, broth microdilution, 18 h): >32 µg/mL |
| CC(C)C[C@@H]1NC(=O)[C@@H](Cc2ccccc2)NC(=O)[C@H](CCN)NC(=O)[C@@H](NC(=O)[C@@H](CCN)NC(=O)[C@@H](NC(=O)CCCOc2ccccc2)[C@@H](C)O)CCNC(=O)[C@H]([C@@H](C)O)NC(=O)[C@H](CCN)NC(=O)[C@H](CCN)NC1=O [Compound 26] ({Butanoyl(4-OPh)}-T[dDab][Dab][Dab][dF]L[Dab][Dab]T; lactam 3-C) | 4 (≈ 3.55 µM) | 1 (≈ 0.889 µM) | 1 (≈ 0.889 µM) | 2 (≈ 1.78 µM) | >32 | > 300 | 16 (≈ 14.2 µM) | 1 (≈ 0.889 µM) | >32 | – |
| CCCCCCCC(=O)N[C@H](C(=O)N[C@H](Cc1c[nH]cn1)C(=O)N[C@H]1CCNC(=O)[C@H]([C@@H](C)O)NC(=O)[C@H](CCN)NC(=O)[C@H](CCN)NC(=O)[C@H](CC(C)C)NC(=O)[C@@H](Cc2ccccc2)NC(=O)[C@H](CCN)NC1=O)[C@@H](C)O [Compound 48] (Octanoyl-T[dH][Dab][Dab][dF]L[Dab][Dab]T; lactam 3-C) | 4 (≈ 3.55 µM) | 4 (≈ 3.55 µM) | 4 (≈ 3.55 µM) | 16 (≈ 14.2 µM) | – | > 300 | 4 (≈ 3.55 µM) | 2 (≈ 1.78 µM) | >32 | – |
| CCCCCCCC(=O)N[C@H](C(=O)NCC(=O)N[C@H]1CCNC(=O)[C@H]([C@@H](C)O)NC(=O)[C@H](CCN)NC(=O)[C@H](CCN)NC(=O)[C@H](CC(C)C)NC(=O)[C@@H](Cc2ccccc2)NC(=O)[C@H](CCN)NC1=O)[C@@H](C)O [Compound 49] (Octanoyl-TG[Dab][Dab][dF]L[Dab][Dab]T; lactam 3-C) | >32 | >32 | >32 | >32 | – | 163 | >32 | 4 (≈ 3.82 µM) | >32 | – |
| CC(C)C[C@@H]1NC(=O)[C@@H](Cc2ccccc2)NC(=O)[C@H](CCN)NC(=O)[C@@H](NC(=O)CNC(=O)[C@@H](NC(=O)CCCOc2ccccc2)[C@@H](C)O)CCNC(=O)[C@H]([C@@H](C)O)NC(=O)[C@H](CCN)NC(=O)[C@H](CCN)NC1=O [Compound 51] ({Butanoyl(4-OPh)}-TG[Dab][Dab][dF]L[Dab][Dab]T; lactam 3-C) | >32 | 16 (≈ 14.8 µM) | 4 (≈ 3.7 µM) | 8 (≈ 7.39 µM) | – | > 300 | 16 (≈ 14.8 µM) | 2 (≈ 1.85 µM) | >32 | – |
| CCCCCCC[C@@H](O)CC(=O)N[C@H](C(=O)NCC(=O)N[C@H]1CCNC(=O)[C@H]([C@@H](C)O)NC(=O)[C@H](CCN)NC(=O)[C@H](CCN)NC(=O)[C@H](CC(C)C)NC(=O)[C@@H](Cc2ccccc2)NC(=O)[C@H](CCN)NC1=O)[C@@H](C)O [Compound 52] ({Decanoyl(3R-OH)}-TG[Dab][Dab][dF]L[Dab][Dab]T; lactam 3-C) | >32 | 4 (≈ 3.67 µM) | 4 (≈ 3.67 µM) | 4 (≈ 3.67 µM) | – | > 300 | 32 (≈ 29.3 µM) | 1 (≈ 0.917 µM) | >32 | – |
| CNC(C)C1CCC(N)C(OC2C(N)CC(N)C(OC3OCC(C)(O)C(NC)C3O)C2O)O1 (stereo not drawn) [Gent, gentamicin, reference compound] | – | – | – | – | – | > 300 | – | – | – | MIC (A. baumannii ATCC 19606; Acinetobacter baumannii, ATCC19606, 18 h, read-out: MIC A. baumannii ATCC 19606): 32 µg/mL (≈ 67 µM); MIC (K. pneumoniae ATCC 13833; Klebsiella pneumoniae, ATCC13833, 18 h, read-out: MIC K. pneumoniae ATCC 13833): 0.25 µg/mL (≈ 0.523 µM); MIC ([1]; Klebsiella pneumoniae, ATCC700603, 18 h, read-out: MIC K. pneumoniae ATCC 700603): 8 µg/mL (≈ 16.8 µM); MIC (K. pneumoniae BAA 2146; Klebsiella pneumoniae, BAA2146, 18 h, read-out: MIC K. pneumoniae BAA 2146): > 32 µg/mL; MIC (P. aeruginosa ATTC 27853; Pseudomonas aeruginosa, ATTC27853, 18 h, read-out: MIC P. aeruginosa ATTC 27853): > 32 µg/mL; MIC ([2]; Pseudomonas aeruginosa, FADDIPA070, 18 h, read-out: MIC P. aeruginosa FADDI PA070): 32 µg/mL (≈ 67 µM); MIC (S. aureus ATCC 25923; Staphylococcus aureus, ATCC25923, 18 h, read-out: MIC S. aureus ATCC 25923): 0.5 µg/mL (≈ 1.05 µM) |
| CC(C)C[C@@H]1NC(=O)[C@@H](Cc2ccccc2)NC(=O)[C@H](CCN)NC(=O)[C@@H](NC(=O)[C@H](CCN)NC(=O)[C@@H](N)[C@@H](C)O)CCNC(=O)[C@H]([C@@H](C)O)NC(=O)[C@H](CCN)NC(=O)[C@H](CCN)NC1=O [PMBN, polymyxin B nonapeptide, reference compound] (H-T[Dab][Dab][Dab][dF]L[Dab][Dab]T; lactam 3-C (inferred)) | >32 | >32 | >32 | 2 (≈ 2.08 µM) | – | > 300 | >32 | >32 | >32 | – |
